Experimental data taken from patent US12318457B2, “Oligosaccharide linker, linker-payload comprising the same and glycan chain-remodeled antibody-drug conjugate, preparation methods and uses thereof” (GENEQUANTUM HEALTHCARE (SUZHOU) CO., LTD., priority 2022, dated 2025).
Where two headings read alike, the source gives them in different places. Non-standard residues stand in square brackets, D forms with d. Residues, ends and D or L forms follow the SMILES beside them. *: point of attachment. Dolaproine = CO[C@@H]([C@@H]1CCCN1)[C@@H](C)C(=O)O; Dil = CC[C@H](C)[C@H](NC)[C@@H](CC(=O)O)OC; X1 = C[C@@H](N*)[C@@H](O)c1ccccc1; NMeV = CN[C@H](C(=O)O)C(C)C

How the values were obtained:
Assay type in all cases: cell-based
[1] = tested on: BxPC-3 (human pancreatic cancer cell); test: Tumor cell proliferation inhibition, BxPC-3
Procedure: (§1) 1) ErbB2/HER2-positive human breast cancer cells BT-474, ErbB2/HER2-positive human gastric cancer cells NCI-N87 and ErbB2/HER2-negative human liver cancer cells HepG2 were inoculated into a 96-well cell plate at 100 μL/well (1000 to 10000 cells), and incubated overnight in a cell incubator under the conditions of 37° C., 5% CO2, 95% air and 100% humidity.
(§2) 3) The cell plate was removed from the 37° C. cell incubator, and equilibrated for about 30 min to rt. 100 μL of CellTiter Glo reagent was added into each well, a shaker shook for 2 min, followed by standing in a dark place at rt for 10 min, and the relative light unit (RLU) was measured with a Cytation 3 microplate reader.
(§3) For example, BxPC-3, FaDu, HepG2 and other human tumor cells were selected.
(§4) For example, TROP2-positive human tumor cells such as BxPC-3 (human pancreatic cancer cell) and FaDu (human throat cancer cell), and TROP2-negative tumor cells such as HepG2 (human liver cancer cell) were selected.

[2] = tested on: human liver cancer cells HepG2; test: Tumor cell proliferation inhibition (CellTiter Glo), HepG2
Procedure: as §1, §2, §3, §4

[3] = tested on: FaDu (human throat cancer cell); test: Tumor cell proliferation inhibition, FaDu
Procedure: as §1, §2, §3, §4

[4] = tested on: ErbB2/HER2-positive human breast cancer cells BT-474; test: Tumor cell proliferation inhibition (CellTiter Glo), BT-474
Procedure: as §1, §2

[5] = tested on: ErbB2/HER2-positive human gastric cancer cells NCI-N87; test: Tumor cell proliferation inhibition (CellTiter Glo), NCI-N87
Procedure: as §1, §2

## CC[C@H](C)[C@@H]([C@@H](CC(=O)N1CCC[C@H]1[C@H](OC)[C@@H](C)C(=O)N[C@H](C)[C@@H](O)c1ccccc1)OC)N(C)C(=O)[C@@H](NC(=O)[C@@H](NC)C(C)C)C(C)C [MMAE, monomethylauristatin E] (H-[NMeV]V[Dil][Dolaproine]-X1)
[1]; BxPC-3
  maximum killing percentage relative to the control group: 99.56%
[1]; BxPC-3, TROP2-positive, Table 7, read-out: Proliferation Inhibition Action on Tumor Cells (IC50)
  IC50: 0.388 nM
[2]; HepG2, ErbB2/HER2-negative, 72 to 120 h, read-out: Proliferation Inhibition Effect on Tumor Cells (IC50)
  IC50: 0.567 nM
[2]; HepG2, ErbB2/HER2-negative, control puromycin 5 μM
  maximum killing percentage relative to the control group: 74.88%
[2]; HepG2, TROP2-negative
  maximum killing percentage relative to the control group: 83.43%
[2]; HepG2, TROP2-negative, Table 7, read-out: Proliferation Inhibition Action on Tumor Cells (IC50)
  IC50: 0.398 nM
[3]
  maximum killing percentage relative to the control group: 90.87%
[3]; TROP2-positive, Table 7, read-out: Proliferation Inhibition Action on Tumor Cells (IC50)
  IC50: 0.167 nM
[4]; BT-474, ErbB2/HER2-positive, 72 to 120 h, read-out: Proliferation Inhibition Effect on Tumor Cells (IC50)
  IC50: 0.272 nM
[4]; BT-474, control puromycin 5 μM
  maximum killing percentage relative to the control group: 86.46%
[5]; NCI-N87, ErbB2/HER2-positive, 72 to 120 h, read-out: Proliferation Inhibition Effect on Tumor Cells (IC50)
  IC50: 0.248 nM
[5]; NCI-N87, control puromycin 5 μM
  maximum killing percentage relative to the control group: 90.78%
